From ChEMBL document CHEMBL1201862, “PubChem BioAssay data set” (2004) come the findings set out here.

Test systems include CCRF-CEM; NCI-H23; RXF 393; T47D; SF-268; MDA-N; SK-MEL-28; HL-60; IGROV-1; MDA-MB-435; SK-MEL-2; KM12; OVCAR-3; MCF7; SW-620; HT-29; COLO 205; LOX IMVI; MOLT-4; K562.
Common to all, as to experiment: NCI anticancer screen, dose series, 48 h

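Exposure lasted 48 hours, with cells grown in 96-well plates and compounds tested at five concentrations. GI50 is the concentration that inhibits growth by half.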 Active and inactive are the calls of the source. No stated cut-off is given here; in the data, active = GI50 up to about 1.1 µM and inactive = higher.

In the case of `COP(=O)(OC)[C@@](O)(c1ccccc1)[C@@H](O)[C@@H](O)c1ccccc1`, the GI50 in the assay on CCRF-CEM was 21.7 µM (inactive); with NCI-H23, > 100 µM (inactive); in the assay on RXF 393, > 100 µM (inactive); in the assay with T47D, > 100 µM (inactive); in the assay with SF-268 it was > 100 µM (inactive); with MDA-N, 85.3 µM (inactive). Also, the GI50 is > 100 µM (inactive) with SK-MEL-28; > 100 µM (inactive) in the assay on HL-60; 87.5 µM (inactive) with IGROV-1; > 100 µM (inactive) with MDA-MB-435; > 100 µM (inactive) in the assay with SK-MEL-2; > 100 µM (inactive) in the assay with KM12. The GI50 with OVCAR-3 is > 100 µM (inactive); with MCF7, 27.6 µM (inactive); with SW-620, 44.7 µM (inactive); with HT-29 it was > 100 µM (inactive); with COLO 205, > 100 µM (inactive); with LOX IMVI, 17.8 µM (inactive).

As for `Cc1ccsc1/C(S)=N\c1ccc(Cl)c(/C=N/OC(C)(C)C)c1`, the GI50 in the assay on CCRF-CEM is 24.2 µM (inactive); with NCI-H23, 24.7 µM (inactive); in the assay on RXF 393, 14.8 µM (inactive); in the assay with T47D, 23.6 µM (inactive); in the assay on SF-268 it was > 100 µM (inactive); with MDA-N it was 43.1 µM (inactive). The GI50 with SK-MEL-28 was 28.1 µM (inactive); in the assay on HL-60, 24.2 µM (inactive); with IGROV-1 it was 28.9 µM (inactive); with MDA-MB-435 it was 53.3 µM (inactive); in the assay on SK-MEL-2, 41.8 µM (inactive); in the assay with KM12, 25.1 µM (inactive). Besides, the GI50 in the assay with OVCAR-3 was 83.2 µM (inactive); with MCF7, 35.2 µM (inactive); with SW-620 it was 35.3 µM (inactive); with HT-29, 14.1 µM (inactive); in the assay with COLO 205 it was 16.3 µM (inactive); in the assay with LOX IMVI it was 18.6 µM (inactive). Besides, the GI50 in the assay on MOLT-4 was 12.3 µM (inactive).

Turning to `OC1OC(c2ccco2)C(F)(F)C(F)(F)C1(F)F` (stereo unspecified), the GI50 in the assay on CCRF-CEM is 21.9 µM (inactive); in the assay on K562 it was > 100 µM (inactive); with RXF 393, > 100 µM (inactive); with T47D it was 46.2 µM (inactive); with SF-268, 71.3 µM (inactive); in the assay on MDA-N it was > 100 µM (inactive). The GI50 was > 100 µM (inactive) in the assay with SK-MEL-28; 34.4 µM (inactive) in the assay on HL-60; > 100 µM (inactive) in the assay on IGROV-1; 43.6 µM (inactive) in the assay on MDA-MB-435; > 100 µM (inactive) in the assay on SK-MEL-2; 19.9 µM (inactive) in the assay on KM12. The GI50 with OVCAR-3 was > 100 µM (inactive); with MCF7, > 100 µM (inactive); in the assay on SW-620, > 100 µM (inactive); with HT-29, 23.3 µM (inactive); in the assay on COLO 205 it was 82.6 µM (inactive); in the assay on LOX IMVI, > 100 µM (inactive).

Turning to `C=C1C(=O)O[C@@H]2C=C(C)C3=CC(=O)[C@](C)(C[C@H](OC(=O)/C(C)=C\C)[C@@H]12)O3`, the GI50 with CCRF-CEM is 0.209 µM (active); with K562, 0.282 µM (active); in the assay on NCI-H23 it was 1.22 µM (inactive); with RXF 393, 0.29 µM (active); in the assay on T47D, 0.916 µM (active); in the assay with SF-268 it was 3.12 µM (inactive). Also, the GI50 in the assay with MDA-N was 0.311 µM (active); with SK-MEL-28, 1.24 µM (inactive); in the assay on HL-60, 0.157 µM (active); with IGROV-1, 1.03 µM (active); in the assay with MDA-MB-435 it was 0.813 µM (active); in the assay with SK-MEL-2, 1.7 µM (inactive). The GI50 in the assay on KM12 was 1.3 µM (inactive); in the assay with MCF7, 0.41 µM (active); in the assay with SW-620 it was 0.306 µM (active); in the assay with HT-29, 0.647 µM (active); with COLO 205 it was 0.51 µM (active); in the assay with LOX IMVI it was 0.299 µM (active). In addition, in the assay with MOLT-4, the GI50 is 0.273 µM (active).

Take `COCCCN(Cc1cc(OC)c(OC)c(OC)c1)C(=S)Nc1cccc(Cl)c1`: the GI50 with CCRF-CEM is 25.3 µM (inactive); in the assay with K562 it was 15.7 µM (inactive); in the assay with RXF 393, 26.8 µM (inactive); in the assay on T47D, 12.2 µM (inactive); with SF-268, 19.9 µM (inactive); in the assay with MDA-N, 19.2 µM (inactive). Also, the GI50 is 27.5 µM (inactive) with SK-MEL-28; 17.7 µM (inactive) with HL-60; 34.4 µM (inactive) with IGROV-1; 20.9 µM (inactive) with MDA-MB-435; 23.1 µM (inactive) with SK-MEL-2; 23.1 µM (inactive) in the assay with KM12. Also, the GI50 in the assay on OVCAR-3 was 41.6 µM (inactive); in the assay with MCF7, 21.7 µM (inactive); in the assay with SW-620, 31.8 µM (inactive); in the assay on HT-29, 18.7 µM (inactive); with COLO 205, 33.8 µM (inactive); in the assay with LOX IMVI it was 21.5 µM (inactive). Further, the GI50 in the assay on MOLT-4 was 13.4 µM (inactive).

As for `Nc1c(Cl)cc(-c2nc3ccccc3s2)cc1Cl`, the GI50 in the assay on CCRF-CEM was > 100 µM (inactive); in the assay on K562, > 100 µM (inactive); in the assay on RXF 393, > 100 µM (inactive); with T47D it was 4.16 µM (inactive); with SF-268 it was > 100 µM (inactive); in the assay on MDA-N, > 100 µM (inactive). Further, the GI50 was > 100 µM (inactive) in the assay on SK-MEL-28; > 100 µM (inactive) in the assay with HL-60; 0.328 µM (active) with IGROV-1; > 100 µM (inactive) in the assay with MDA-MB-435; > 100 µM (inactive) in the assay on SK-MEL-2; > 100 µM (inactive) in the assay with KM12. Moreover, the GI50 in the assay on OVCAR-3 is > 100 µM (inactive); with MCF7, 0.522 µM (active); with SW-620 it was > 100 µM (inactive); with HT-29, > 100 µM (inactive); in the assay with COLO 205, > 100 µM (inactive); in the assay with MOLT-4, > 100 µM (inactive).

As for `CC[C@H](C)C1=C(OC(C)=O)[N@+]2([O-])Oc3ccc(-c4c(O)c(O)c(-c5ccc(OC(C)=O)cc5)c(OC(C)=O)c4OC(C)=O)cc3O[C@]2([C@@H](C)CC)C(=O)N1O`, the GI50 in the assay on K562 is 11.7 µM (inactive); with NCI-H23 it was 29.8 µM (inactive); in the assay on RXF 393, 29.6 µM (inactive); in the assay with T47D, 15.1 µM (inactive); in the assay on SF-268 it was 18.8 µM (inactive); in the assay with MDA-N, 23.2 µM (inactive). For the same molecule, the GI50 was 27 µM (inactive) with SK-MEL-28; 15.9 µM (inactive) in the assay with HL-60; 17 µM (inactive) in the assay with IGROV-1; 27.1 µM (inactive) in the assay with MDA-MB-435; > 50 µM (inactive) with SK-MEL-2; 20.6 µM (inactive) in the assay on KM12. The GI50 is 15 µM (inactive) in the assay on OVCAR-3; 19.4 µM (inactive) in the assay with MCF7; 11.1 µM (inactive) in the assay on SW-620; 17.6 µM (inactive) in the assay with HT-29; 19.8 µM (inactive) in the assay on COLO 205; 17.5 µM (inactive) in the assay on LOX IMVI. The GI50 in the assay on MOLT-4 was 13.2 µM (inactive).

In the case of `CC(C)(C)c1cc(C(C)(C)C)c2sc(=O)oc2c1O`, the GI50 in the assay on CCRF-CEM was 18.8 µM (inactive); in the assay with K562, 10.1 µM (inactive); with RXF 393, 11.9 µM (inactive); in the assay on T47D, 6.14 µM (inactive); with SF-268, 13.6 µM (inactive); in the assay with MDA-N, 13.5 µM (inactive). Also, the GI50 was 16.3 µM (inactive) in the assay with SK-MEL-28; 5.6 µM (inactive) in the assay with HL-60; 14.2 µM (inactive) in the assay on IGROV-1; 12.4 µM (inactive) in the assay on MDA-MB-435; 15.5 µM (inactive) with SK-MEL-2; 14.1 µM (inactive) with KM12. The GI50 in the assay with OVCAR-3 is 11.8 µM (inactive); in the assay on MCF7, 12.6 µM (inactive); in the assay on HT-29, 17.4 µM (inactive); in the assay on COLO 205, 18.8 µM (inactive); in the assay with LOX IMVI, 14 µM (inactive); in the assay with MOLT-4, 8.26 µM (inactive).

In the case of `CC1=NN(c2cc(Cl)c(S(=O)(=O)O)cc2Cl)C2(C1)C(Cl)C(=O)N2c1nc2ccccc2s1` (stereo unspecified), the GI50 in the assay with CCRF-CEM is 30.3 µM (inactive); with K562, > 100 µM (inactive); with NCI-H23 it was 91 µM (inactive); in the assay with RXF 393, > 100 µM (inactive); with T47D, 66.1 µM (inactive); with SF-268, > 100 µM (inactive). For the same molecule, the GI50 in the assay on MDA-N was > 100 µM (inactive); in the assay with SK-MEL-28, > 100 µM (inactive); in the assay with HL-60, > 100 µM (inactive); in the assay on IGROV-1, 35 µM (inactive); in the assay with MDA-MB-435, 84.3 µM (inactive); in the assay with SK-MEL-2 it was > 100 µM (inactive). The GI50 in the assay with KM12 is 97.9 µM (inactive); in the assay on MCF7, 46.2 µM (inactive); in the assay on SW-620, > 100 µM (inactive); with HT-29 it was > 100 µM (inactive); with COLO 205 it was > 100 µM (inactive); in the assay on LOX IMVI, 29.4 µM (inactive). Further, in the assay on MOLT-4, the GI50 is 45.6 µM (inactive).

As for `c1ccc(C(C2=Nc3cccc4cccc(c34)N2)c2ccccc2)cc1`, the GI50 with CCRF-CEM was 39.2 µM (inactive); in the assay with K562 it was 19 µM (inactive); with NCI-H23, 28.1 µM (inactive); in the assay with RXF 393 it was 27.3 µM (inactive); with T47D, 13.3 µM (inactive); in the assay with SF-268, 24.4 µM (inactive). Besides, the GI50 is 23.4 µM (inactive) with MDA-N; 23.6 µM (inactive) in the assay on SK-MEL-28; 31.7 µM (inactive) with HL-60; 33.9 µM (inactive) with IGROV-1; 25.5 µM (inactive) in the assay with MDA-MB-435; 20.9 µM (inactive) in the assay with SK-MEL-2. In addition, the GI50 was 20.6 µM (inactive) in the assay on KM12; 20.3 µM (inactive) with OVCAR-3; 31.8 µM (inactive) with MCF7; 47.3 µM (inactive) with SW-620; 23.2 µM (inactive) in the assay on HT-29; 18.9 µM (inactive) in the assay on COLO 205. For the same molecule, the GI50 in the assay with LOX IMVI was 18.7 µM (inactive).
